Measurements: ChEMBL document CHEMBL1152074, “Synthesis and antimalarial evaluation of 2,3,5-trioxabicyclo[2.2.2]octanes, models for the putative pharmacophore of qinghaosu (artemisinin)” (Bioorg Med Chem Lett, 1992)
In brackets after ≈: the same amount, converted by molar mass.

Columns and labels:
Format in all cases: functional, organism-based
Plasmodium falciparum [1] = assay: Inhibitory concentration (IC50) against chloroquine-resistant falciparum Indochina W2 in human malaria
Plasmodium falciparum [2] = assay: Inhibitory concentration (IC50) against chloroquine-sensitive falciparum sierra leone […] in human malaria
Plasmodium falciparum [3] = assay: Inhibitory concentration (IC50) against chloroquine-sensitive falciparum sierra leone […] in human malaria; 10000-46608
Plasmodium falciparum [4] = assay: Inhibitory concentration IC50 against chloroquine-resistant falciparum indochina(W-2) malaria in humans; 7079-48759
Plasmodium falciparum [5] = assay: Inhibitory concentration (IC50) against chloroquine-sensitive falciparum sierra leone […] in human malaria; 979-50000
Plasmodium falciparum [6] = assay: Inhibitory concentration (IC50) against chloroquine-resistant falciparum indochina W-2 in human malaria; 60-50000
Plasmodium falciparum [7] = assay: Inhibitory concentration IC50 against chloroquine-resistant falciparum W-2 indochina human malaria; 8000-18088
Plasmodium falciparum [8] = assay: Inhibitory concentration (IC50) against chloroquine-sensitive falciparum sierra leone […] in human malaria; 9569-21648
[9] = Plasmodium falciparum, read-out: IC50

Row | SMILES | IC50 (Plasmodium falciparum [1]; [9]) [µg/mL] | IC50 (Plasmodium falciparum [2]) [µg/mL] | further results
1 | C[C@H]1OC2CCC1OO2 (stereo partly specified) | 13.1 (≈ 101 µM) | 8.46 (≈ 65 µM) | –
2 | COC1CCC(OO)CO1 (stereo unspecified) | 1.05 (≈ 7.06 µM) | 0.472 (≈ 3.19 µM) | –
3 | COC1CCC(CO)OO1 (stereo unspecified) | 0.454 (≈ 3.06 µM) | 0.531 (≈ 3.58 µM) | –
4 | COC1CC[C@@H]([C@H](C)O)OO1 (stereo partly specified) | 12.3 (≈ 75.7 µM) | 7.35 (≈ 45.3 µM) | –
5 | CO[C@]1(C)CC[C@@H](OO)CO1 | – | – | IC50 (Plasmodium falciparum [3]): 10 µg/mL (≈ 61.7 µM); IC50 (Plasmodium falciparum [4]): 7.08 µg/mL (≈ 43.6 µM)
6 | C[C@@H]1OC2CCC1OO2 (stereo partly specified) | 28.8 (≈ 222 µM) | 28.5 (≈ 219 µM) | –
7 | CO[C@H]1CC[C@H](OO)[C@@H](C)O1 | 3.44 (≈ 21.2 µM) | 1.01 (≈ 6.2 µM) | –
8 | CC12CCC(CO1)OO2 (stereo unspecified) | – | 50 (≈ 384 µM) | IC50 (Plasmodium falciparum [1]): > 100 µg/mL
9 | C1CC2OCC1OO2 (stereo unspecified) | – | – | IC50 (Plasmodium falciparum [5]): 0.979 µg/mL (≈ 8.43 µM); IC50 (Plasmodium falciparum [6]): 0.06 µg/mL (≈ 0.517 µM)
10 | C[C@@H]1CC[C@H]2[C@@H](C)C(=O)O[C@@H]3O[C@@]4(C)CC[C@@H]1[C@]32OO4 [ARTEMISININ] | – | 0.00202 (≈ 0.00715 µM) | –
11 | CO[C@H]1CC[C@@H](OO)[C@@H](C)O1 | – | – | IC50 (Plasmodium falciparum [7]): 8 µg/mL (≈ 49.3 µM); IC50 (Plasmodium falciparum [8]): 9.57 µg/mL (≈ 59 µM)
